# Measured values from patent publication US9518008B2, “(1S,2S,3S,4R)-3-[(1S)-1-acetylamino-2-ethyl-butyl]-4-uanidino-2-hydroxyl-cyclopentyl-1-carboxylic acid hydrates pharmaceutical uses thereof” (Institute of Pharmacology and Toxicology Academy of …, priority 2007, dated 2016).
# Read-outs that look alike come from different tables or passages of the source.
# Legend:
# [1] = Determination of hygroscopicity (high humidity test); type: physicochemical
# Description: The hygroscopicity of the compound of the invention can be tested by a standard hygroscopicity test method. For example, the compound is stored in a sealed vessel at room temperature at a relative humidity of 92.5%, 80% or 75%, and the change in moisture content of the compound is tested by sampling at regular intervals.
# At the 5th and 10th days, the products were sampled and determined in aspect of important items relating to stability investigation. […] If the weight gain of a product due to moisture absorption was more than 5%, the product was further experimented according to the same method under a relative humidity of 75%±5%. If the weight gain of a product due to moisture absorption was less than 5%, and other items thereof under investigation met the relevant requirements, no more experiment was needed. The humidity-constant condition could be achieved by placing a saturated saline solution at the lower part of a sealed vessel, e.g., a desiccator, and a NaCl saturated solution (15.5-60° C., a relative humidity of 75%±1%) or a KNO3 saturated solution (25° C., a relative humidity of 92.5%) may be selected according to the requirement of different relative humidity.
# [2] = system: Influenza B virus (B/Jing Fang/76/98) neuraminidase; assay: Neuraminidase inhibition by fluorimetry with 4-MUNANA; type: biochemical
# [3] = Accelerated stability test of the hydrates; details: for Character / Content / Change in weight: 40° C., 75% RH
# Description: The stability of the compound of the invention can be tested by a standard stability test method, such as the methods specified in Guidelines for Stability Testing of Drug Substances involved in Appendix XIX C of Chinese Pharmacopoeia (2005 edition). For example, the stability of the compound of the general formula (I) can be tested by an accelerated stability test method, e.g., the stability of the compound of the general formula (I), at 0, 1, 2, 3, 6 months, is tested respectively under the conditions: 40° C., 75% relative humidity; 40° C., 92.5% relative humidity; and 80° C. The change in principal agent and relevant substances can be analyzed by thin layer chromatography, high performance liquid chromatography, and etc.
# The device used should be capable of controlling temperature with a precise of ±2° C., and relative humidity with a precise of ±5%, and could monitor true temperature and humidity. The products were sampled respectively at the end of the 1, 2, 3 and 6 months during the test, and determined in aspect of important items relating to stability investigation.
# [4] = target: Influenza A virus (H3N2) neuraminidase (Influenza A virus, UniProt P03482); assay: Neuraminidase inhibition by fluorimetry with 4-MUNANA; type: biochemical
# Chain of Influenza A virus (H3N2) neuraminidase (P03482 whole entry, looked up): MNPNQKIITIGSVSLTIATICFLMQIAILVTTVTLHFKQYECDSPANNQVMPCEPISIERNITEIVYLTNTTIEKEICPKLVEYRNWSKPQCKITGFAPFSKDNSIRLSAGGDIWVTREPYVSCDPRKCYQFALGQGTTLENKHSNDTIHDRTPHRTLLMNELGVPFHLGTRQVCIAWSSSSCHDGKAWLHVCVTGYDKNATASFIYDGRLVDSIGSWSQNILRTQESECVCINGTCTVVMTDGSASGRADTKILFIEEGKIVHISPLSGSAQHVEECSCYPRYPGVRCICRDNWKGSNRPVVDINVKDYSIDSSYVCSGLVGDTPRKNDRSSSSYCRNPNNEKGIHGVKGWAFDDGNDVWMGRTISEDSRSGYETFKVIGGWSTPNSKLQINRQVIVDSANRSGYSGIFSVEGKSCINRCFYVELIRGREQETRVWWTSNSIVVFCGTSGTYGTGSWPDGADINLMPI
# [5] = Dissolution behavior in water; type: physicochemical; details: for dissolution behavior: 100 ml: 300 mg
# Description: (1) water for injection (room temperature)
# (2) water for injection (80° C.)
# (3) water for injection (room temperature, adjusted to be acidic with hydrochloric acid)
# (4) water for injection (adjusted to be basic with disodium hydrogen phosphate)
# [6] = Influence of different acidic conditions (pH) on stability of trihydrate solution, sterilization; type: physicochemical; details: conclusion from sterilization and 60° C. data
# Description: The resulting solutions were high pressure steam sterilized at 115° C. for 30 minutes. Then, the solutions were sampled for the determination of change in pH value and change in amount of relevant substances.
# [7] = system: influenza virus strain FM1 (H1N1); assay: Anti-influenza activity in infected mice (survival); type: in vivo, mice (BALB/C); details: 5 times, 14th day after infection
# Description: A virus drip is prepared typically by including 500 pfu (plaque forming unit) of mice-compliance influenza virus strain in 50 μl phosphate buffer (containing 0.42% bovine serum albumin), and then dropped into nasal cavity of mice to infect them (BALB/C, female, aged 5-6 weeks, weighted 20 g). The compound of the invention is suspended in physiological saline to obtain different doses, typically from 2.5 mg/kg to 40 mg/kg, and is administered to the mice at different time before and after the viral infection, typically administered by intraperitoneal injection for 5 times, i.e., 1 hour, and 2, 3, 4, 5 days after the viral infection. The assay is performed by using 8 or 12, typically 10 mice. The result is expressed by the ratio of the number of survival mice the 14th day after the viral infection to the number of the mice in assay.
# A solution was prepared by including 500 pfu (plaque forming unit) of mice-compliance influenza virus strain FM1 (H1N1) in 50 μl phosphate buffer (containing 0.42% bovine serum albumin), and then dropped into nasal cavity of mice (BALB/C, female, aged 5-6 weeks, weighted 20 g) to infect them with an infective dose of 23.7LD50. The compound of the invention was suspended in physiological saline, and was administered in doses of 2.5 mg/kg, 5 mg/kg, 10 mg/kg, 20 mg/kg to the mice by intraperitoneal injection for 5 times, i.e., 1 hour, and 2, 3, 4, 5 days after the viral infection, respectively. The assay was performed by 10 mice. The result was expressed by the ratio of the number of survival mice the 14th day after the viral infection to the number of the mice in assay.
# [8] = Relative humidity 92.5%, 25° C.
# [9] = Con. 0.01 nM, virus concentration NA 1/40
# [10] = Con. 0.1 nM, virus concentration NA 1/40
# [11] = Con. 1 nM, virus concentration NA 1/40
# [12] = Con. 10 nM, virus concentration NA 1/40
# [13] = Con. 100 nM, virus concentration NA 1/40
# [14] = virus concentration NA 1/40, read-out: IC50
smiles,measurement,setting,value
"CCC(CC)[C@H](NC(C)=O)[C@H]1[C@H](O)[C@@H](C(=O)O)C[C@H]1NC(=N)N.O.O.O [Trihydrate, (1S,2S,3S,4R)-3-[(1S)-1-acetylamino-2-ethyl-butyl]-4-guanidino-2-hydroxy-cyclopentyl-1-carboxylic acid trihydrate]",Hygroscopicity at the 5th day,[1]; Relative humidity 75%,1.68%
same,Hygroscopicity at the 10th day,[1]; Relative humidity 75%,1.83%
same,Hygroscopicity at the 5th day,[1]; [8],2.11%
same,Hygroscopicity at the 10th day,[1]; [8],2.24%
same,weight gain,"[1]; ten-day observation test, sealed vessel, room temperature, high relative humidity",about 2.24%
same,inhibitory rate IR,"[2]; Con. 0.01 nM, virus concentration NA 1/20",8.81%
same,inhibitory rate IR,[2]; [9],7.92%
same,inhibitory rate IR,"[2]; Con. 0.1 nM, virus concentration NA 1/20",15.31%
same,inhibitory rate IR,[2]; [10],19.17%
same,inhibitory rate IR,"[2]; Con. 1 nM, virus concentration NA 1/20",39.11%
same,inhibitory rate IR,[2]; [11],44.84%
same,inhibitory rate IR,"[2]; Con. 10 nM, virus concentration NA 1/20",82.01%
same,inhibitory rate IR,[2]; [12],81.45%
same,inhibitory rate IR,"[2]; Con. 100 nM, virus concentration NA 1/20",97.78%
same,inhibitory rate IR,[2]; [13],96.71%
same,IC50,"[2]; average of NA 1/20 and NA 1/40, read-out: Average IC50",1.07 nM
same,IC50,"[2]; virus concentration NA 1/20, read-out: IC50",1.14 nM
same,IC50,[2]; [14],0.998 nM
same,Character,[3]; 0 month,White solid
same,Content,[3]; 0 month,99.90%
same,Change in weight,[3]; 1 month,+0.01%
same,Character,[3]; 1 month,White solid
same,Content,[3]; 1 month,99.95%
same,Change in weight,[3]; 2 months,−0.02%
same,Character,[3]; 2 months,White solid
same,Content,[3]; 2 months,99.97%
same,Change in weight,[3]; 3 months,+0.01%
same,Character,[3]; 3 months,White solid
same,Content,[3]; 3 months,99.96%
same,Change in weight,[3]; 6 months,+0.01%
same,Character,[3]; 6 months,White solid
same,Content,[3]; 6 months,99.91%
same,stability,"[3]; stability test of 1, 2, 3, 6 months",good stability
same,inhibitory rate IR,[4]; [9],0.63%
same,inhibitory rate IR,"[4]; Con. 0.01 nM, virus concentration NA 1/80",12.33%
same,inhibitory rate IR,[4]; [10],13.23%
same,inhibitory rate IR,"[4]; Con. 0.1 nM, virus concentration NA 1/80",24.04%
same,inhibitory rate IR,[4]; [11],60.99%
same,inhibitory rate IR,"[4]; Con. 1 nM, virus concentration NA 1/80",63.20%
same,inhibitory rate IR,[4]; [12],99.25%
same,inhibitory rate IR,"[4]; Con. 10 nM, virus concentration NA 1/80",98.80%
same,inhibitory rate IR,[4]; [13],100.43%
same,inhibitory rate IR,"[4]; Con. 100 nM, virus concentration NA 1/80",99.89%
same,IC50,"[4]; average of NA 1/40 and NA 1/80, read-out: Average IC50",0.542 nM
same,IC50,[4]; [14],0.673 nM
same,IC50,"[4]; virus concentration NA 1/80, read-out: IC50",0.411 nM
same,dissolution behavior,[5]; (1) water for injection (room temperature),slowly dissolved
same,dissolution behavior,[5]; (2) water for injection (80° C.),rapidly dissolved
same,dissolution behavior,"[5]; (3) water for injection, room temperature, acidic with hydrochloric acid",relatively easily dissolved
same,"dissolution behavior, condition (3) compared with (4)",[5]; (4) water for injection adjusted to be basic with disodium hydrogen phosphate,more easily dissolved under acidic condition
same,optimum pH value (stability in solution),[6],4.5-6.5
same,Survival number,[7]; 2.5 mg/kg intraperitoneal,6/10
same,Survival rate,[7]; 2.5 mg/kg intraperitoneal,60%
same,Survival number,[7]; 5.0 mg/kg intraperitoneal,7/10
same,Survival rate,[7]; 5.0 mg/kg intraperitoneal,70%
same,Survival number,[7]; 10 mg/kg intraperitoneal,8/10
same,Survival rate,[7]; 10 mg/kg intraperitoneal,80%
same,Survival number,[7]; 20 mg/kg intraperitoneal,9/10
same,Survival rate,[7]; 20 mg/kg intraperitoneal,90%
